From PMC3927586, “Protein kinase C-delta inactivation inhibits the proliferation and survival of cancer stem cells in culture and in vivo” (BMC Cancer, 2014)

Experiments:
MCF 10C cells = assay: Cell proliferation (MTT) of transformed breast epithelial cells; assay type: cell-based, human; settings: for IC50: Homo sapiens, Epithelial cell, 72 hr, read-out: IC50 for the MCF 10C derivative; for concentration with significant effect on MCF 10C cells: as early as 24 hr
Experimental: (§1) Cell proliferation was assessed using an MTT [3-(4,5-dimethylthiazol-2-yl)-2,5-diphenyltetrazolium bromide] assay (Roche, Mannheim, Germany). The number of viable cells growing in a single well on a 96-well microtiter plate was estimated by adding 10 μl of MTT solution (5 mg/ml in phosphate-buffered saline [PBS]). After 4 h of incubation at 37°C, the stain was diluted with 100 μl of dimethyl sulfoxide. The optical densities were quantified at a test wavelength of 570 nm and a reference wavelength of 690 nm on a multiwell spectrophotometer. In some assays, MTS was used as substrate (Promega, Madison, WI), and the absorbance of the product was monitored at 490 nm. Cell enumeration was carried out using a hemocytometer, and viable cells identified by trypan blue exclusion.
Figure 5 Effects of PKCδ inhibitors on growth and spheroid formation in non-transformed and transformed human breast epithelial cells. MCF 10A cells and cells from the derived tumorigenic line MCF 10C (also called M3), were grown to 80% confluence in 96-well plates and then exposed to rottlerin at concentrations ranging from 1 to 20 μM (A) or to BJE6-106 at concentrations ranging from 0.1 to 20 μM (B). The corresponding equivalent volume of solvent (DMSO) was used as a vehicle control (Vehicle). After 24, 48 and 72 hr of exposure, cell mass was evaluated by MTT assay. Control (vehicle) values were normalized to 100%. Error bars represent SEM. p values for comparison between vehicle and PKCδ inhibitors on MCF 10A cell number only reached significance (p < 0.05) at 48 hr at 20 μM for rottlerin, and at 1 μM for BJE6-106. In contrast, significant effects of the inhibitors on the MCF 10C cells were observed as early as 24 hr for rottlerin (at 5 μM) and for BJE6-106 (at 0.1 μM). (C) MCF 10A and MCF 10C cells were plated at 10,000 cells per well in tumor spheroid media, and spheroid formation was assessed at days 10 and 21. Representative photographs are shown. (D) MCF 10C cells were plated at 10,000 cells per well in tumor spheroid media, in the presence of rottlerin (5 μM), or BJE6-106 (1 μM or 5 μM), or DMSO vehicle (Control). Tumor spheroids were enumerated at 10 days. Representative photographs are shown. (E) Spheroid numbers were normalized to the number of spheroids in the control cultures (assigned an arbitrary value of 100%) and plotted. Error bars represent SEM. p values for comparison between vehicle and rottlerin or BJE6-106 effects on spheroid number were significant (p < 0.001).

PCSC cells = assay: Cell proliferation (MTT) of pancreatic cancer stem cells; assay type: cell-based, human; settings: for IC50: Homo sapiens, read-out: IC50 (in culture), growth of PCSC; for IC50 / lowest concentration significantly inhibiting growth of PCSC cultures: 48 hr; for lowest concentration significantly inhibiting growth of PCSC cultures: p ≤ 0.02 vs vehicle
Experimental: as §1
Figure 2 Effects of PKCδ inhibitors on human cancer stem cells. (A) PCSC and PrCSC cells at 80% confluence were exposed to rottlerin. DMSO served as vehicle control (Vehicle). After 24 and 72 hr of exposure, cell mass was evaluated by MTT assay. Control values were normalized to 100%. p values for comparison between treatments reached significance at 24 hr of exposure (p≤0.01) for both cell types, and remained significant at 72 hr. (B) PCSC and PrCSC cells at 50% confluence were exposed to rottlerin. Cytotoxicity was evaluated by LDH-release assay. Total maximal LDH release was assigned the arbitrary value of 100% (Control). p values for comparison between effects of treatments on LDH release reached significance at 24 hr of exposure (p<0.01) for both cell types, and remained significant at 72 hr. (C) Effects of PKCδ inhibitor on tumor cell clonogenic capacity. PCSC were exposed to vehicle or rottlerin (10 μM) for 6, 18, 24, or 48 hr. Viable cells were enumerated and re-plated in media without inhibitor, and colony numbers were quantitated 15 days later. p values for comparison of treatment effects on clonogenic capacity reached significance (p=0.005) at 18 hr of exposure and remained significant for all subsequent exposure times. The insert is a photograph of stained colonies on plates. (D) Structures of staurosporine, rottlerin, second-generation (KAM1) and third-generation (BJE6-106) derivatives. (E) PCSC and PrCSC cells at 50% confluence were exposed to KAM1 at the indicated concentrations. DMSO served as vehicle control (Vehicle). Cytotoxicity was evaluated by LDH-release assay, as in panel B. p values for comparison between treatment effects on LDH release reached significance at 24 hr of exposure to 2.5 μM KAM1 for PCSC cells and at 10 μM for PrCSC (p≤0.01), and remained significant at 72 hr for all concentrations of KAM1. Error bars represent SEM.
Figure 3 Effects of a 3rd generation small molecule PKCδ inhibitor on human pancreatic cancer stem cell cultures. PCSC cells were grown to 80% confluence in 96-well plates and then exposed to BJE6-106 at concentrations ranging from 0.1 to 20 μM, or to rottlerin at concentrations ranging from 1 to 20 μM. The corresponding equivalent volume of solvent (DMSO) was used as a vehicle control (Vehicle). After 48 and 72 hr of exposure, cell mass was evaluated by MTT assay. Control values were normalized to 100%. Error bars represent SEM. p values for comparison between vehicle and rottlerin effects on cell number at 48 hr reached significance at 1 μM, and for BJE6-106 at 0.1 μM (p ≤ 0.02), and remained significant at the 72 hr time point.

MiaPaCa2 = assay: Tumor spheroid growth, MiaPaCa2 pancreatic cancer; assay type: cell-based, human; settings: p < 0.001
Panc1 = assay: Tumor spheroid growth, Panc1 pancreatic cancer; assay type: cell-based, human; settings: p < 0.001
[1] = Drug-like properties: bioavailability; settings: in vivo delivery

Compound | IC50 (MCF 10C cells) [nM] | concentration with significant effect on MCF 10C cells (MCF 10C cells) [µM] | IC50 (PCSC cells; MTT) [nM] | lowest concentration significantly inhibiting growth of PCSC cultures (PCSC cells; MTT) [µM] | inhibition of tumor spheroid growth, MiaPaCa2 (MiaPaCa2; BJE6-106 at 0.5-1.0 μM) [%] | inhibition of tumor spheroid growth, Panc1 (Panc1; BJE6-106 at 0.5-1.0 μM) [%] | bioavailability [1] | growth-inhibitory activity on PCSC at 0.5 μM (PCSC cells; 0.5 μM) | effect on proliferation of PCSC (PCSC cells; MTT, as early as 24 hr after exposure) | inhibition at 10 µM (MiaPaCa2; Homo sapiens, MIA PaCa-2, rottlerin at 10 μM) [%] | inhibition at 10 µM (Panc1; Homo sapiens, PANC-1, rottlerin at 10 μM) [%]
CC1(C)C=Cc2cc(CCn3c4ccccc4c4ccccc43)cc(C=O)c2O1 [BJE6-106, 6-(2-(9H-carbazol-9-yl)ethyl)-2,2-dimethyl-2H-chromene-8-carbaldehyde] | ~100 | 0.1 | ~500 | 0.1 | > 97 | > 99 | poorly bioavailable | – | – | – | –
CC(=O)c1c(O)c(C)c(O)c(Cc2c(O)c3c(c(C(=O)/C=C/c4ccccc4)c2O)OC(C)(C)C=C3)c1O [rottlerin, Rottlerin, reference compound] | ~1000 | 5 | ~3000 | 1 | – | – | readily bioavailable | no significant inhibitory activity | significant dose-dependent inhibition of proliferation | > 97 | > 99
